This note sets out measurements from ChEMBL document CHEMBL4402536, “Recent progress on anti-Toxoplasma drugs discovery: Design, synthesis and screening” (Eur J Med Chem, 2019).

As usually defined, the IC50 is the midpoint of a concentration-inhibition curve. The term EC50 denotes the concentration needed to bring the measured effect to its halfway point. The term ED50 denotes the midpoint of the dose-response relation. The low end stands for greater potency, the high end for weaker potency. What is called half-life is the time needed for the level to fall by half in the phase considered. What is called MIC50 is an inhibitory concentration at the 50% level, which refers to growth in some studies and to a panel of isolates in others. As a reminder, the LC50 is the concentration lethal to half of the exposed cells or organisms.

SMILES strings stand for the structures. Converted amounts (≈) assume the structure as drawn.

Series [1] is described as follows: Inhibition of Toxoplasma gondii CDPK1.
For series [2], the system named is Toxoplasma gondii. The series is described as follows: Antiparasitic activity against Toxoplasma gondii. It is filed as functional, organism-based.
Series [3] relates to Toxoplasma gondii. The series is described as follows: Antiparasitic activity against Toxoplasma gondii infected in human HFF cells after 4 hrs by CellTiter 96Aqueous One cell viability assay. The series is classed as functional, organism-based.
Series [4] relates to Toxoplasma gondii. The series is described as follows: Antiparasitic activity against Toxoplasma gondii infected in CF-1 mouse at 0.04 to 50 mg/kg, po after 48 hrs. The series is classed as functional.
Series [5] can be described thus: Therapeutic index, ratio of TD50 in CF-1 mouse to IC50 of Toxoplasma gondii infected in human HFF cells. The series is classed as toxicity, cell-based. Conditions: read-out: TI.
The nature of series [6]: Half life of the compound. The series is classed as physicochemical.
Series [7] has as its system Toxoplasma gondii. The series is described as follows: Antiparasitic activity against Toxoplasma gondii infected in human HuH7 cells. It is filed as functional, organism-based.
Series [8] deals with Toxoplasma gondii. The series is described as follows: Antiparasitic activity against Toxoplasma gondii RH infected in human HFF cells in presence of […] by radio-labelled assay. The series is classed as functional, organism-based.
For another series, the system named is HFF. The series is described as follows: Cytotoxicity against human HFF cells assessed as reduction in cell viability. It is filed as cell-based.
The nature of series [9]: Selectivity index, ratio of EC50 for human HFF cells to EC50 Toxoplasma gondii RH. It is filed as functional.
Series [10] has as its system Toxoplasma gondii. The series is described as follows: Antiparasitic activity against Toxoplasma gondii infected in human HFF cells after 4 hrs. It is filed as functional, organism-based.
The test system of series [11] is Toxoplasma gondii. The series is described as follows: Antiparasitic activity against Toxoplasma gondii infected in human HFF cells after 7 days by crystal violet assay. It is filed as functional, organism-based. Conditions: 168 h.
Another series deals with Huh-7. The series is described as follows: Cytotoxicity against human HuH7 cells assessed as reduction in cell viability. The series is classed as functional, cell-based.

In the case of `Cc1cccc(Cc2nn(C(C)(C)C)c3ncnc(N)c23)c1`, in [1], half-maximal inhibition (IC50) was put at 3.99 nM. The EC50 with Toxoplasma gondii [2] stood at 110 nM. Turning to `Cc1[nH]c2ccccc2c(=O)c1-c1ccc(Oc2ccc(OC(F)(F)F)cc2)cc1`, the IC50 with Toxoplasma gondii [3] turned out to be 1 nM. Also, the 50% effect level in the series on Toxoplasma gondii [4] (ED50) was put at a dose of 0.14 mg/kg. For the same molecule, the selectivity ratio in series [5] came to 93500. As to `CCN(CC)c1ccc(C(=O)NC(=O)c2ccccc2O)cc1`, the IC50 with Toxoplasma gondii [2] turned out to be 8 nM. The same molecule gave a half-life in series [6] of 33 min. In the series with Toxoplasma gondii [7], `O=C1CN(CCCCCN2CCCCC2)c2ccc([N+](=O)[O-])cc2N1` yielded an MIC50 of 3.3 µM (≈ 1.14 µg/mL). Take `COc1cc2[nH]c(C)c(-c3ccc(Oc4ccc(OC(F)(F)F)cc4)cc3)c(=O)c2cc1F`: in the series with Toxoplasma gondii [3], the half-inhibitory concentration (IC50) was determined as 0.007 nM. For the same molecule, the 50% effect level in the series on Toxoplasma gondii [4] (ED50) was put at a dose of 0.08 mg/kg. In addition, in [5], the selectivity ratio was > 7.1e+06. For `O=c1[nH]ccc2nc(NC3CCCNC3)nc(Nc3ccc(S(=O)(=O)N4CCOCC4)cc3)c12` (centres undefined), the IC50 in the series on Toxoplasma gondii [2] is < 500 nM. Take `Cc1[nH]c2cc(F)cc(F)c2c(=O)c1-c1ccc(Oc2ccc(OC(F)(F)F)cc2)cc1`: the EC50 in the series with Toxoplasma gondii [3] came out at 5 nM. `CC[C@]1(C)NC(=O)[C@H](CCCCCC(=O)[C@@H](C)OC(C)=O)NC(=O)[C@H]2C[C@H](C)CN2C(=O)[C@H](Cc2ccccc2)NC1=O`: the EC50 was determined as 10.2 nM in the series on Toxoplasma gondii [8] and 632 nM with HFF. The “Selectivity Index” value in series [9] was found to be 62. `O=c1c2ccccc2ncn1C[C@H](O)C[C@H]1NCCC[C@@H]1O` had an EC50 in the series with Toxoplasma gondii [2] of 1900 nM. Molecule `O=C(C[C@H]1NCCC[C@@H]1O)Cn1cnc2c(c1=O)CCCC2` displayed an EC50 with Toxoplasma gondii [2] of 880 nM. As to `C=C(C)[C@H](CC=C(C)C)C[C@]12C[C@H](CC=C(C)C)C(C)(C)[C@](CC=C(C)C)(C(=O)C(C(=O)c3ccc(O)c(O)c3)=C1O)C2=O`, in the series on Toxoplasma gondii [8], the EC50 was 1800 nM.

Take `CC(=O)[C@@H]1CC[C@]2(C)CC[C@]3(C)[C@H](CC[C@@H]4[C@@]5(C)CCC(=O)C(C)(C)[C@@H]5CC[C@]43C)[C@@H]12`: the IC50 with Toxoplasma gondii [2] was determined as 24400 nM. In turn, `CC(C)(C)C1=CC(=NNc2ccc([N+](=O)[O-])cc2[N+](=O)[O-])C=C(C(C)(C)C)C1=O` yielded an IC50 with Toxoplasma gondii [10] of 130 nM. For `O=C1CCCN[C@@H]1CCCn1cnc2ccccc2c1=O`, the EC50 in the series on Toxoplasma gondii [2] came out at 8900 nM. In turn, `CC(C)n1c(/C=N/Nc2nc3ccccc3[nH]2)nc2ccccc21` registered an IC50 in the series with Toxoplasma gondii [2] of 1360 nM.

With `CC[C@]1(C)NC(=O)[C@H](CCCCCC(=O)[C@@H](C)OC(=O)Oc2ccccc2)NC(=O)[C@H]2C[C@H](C)CN2C(=O)[C@H](Cc2ccccc2)NC1=O`, the EC50 in the series on Toxoplasma gondii [8] was found to be 11.3 nM; in the series on HFF it was 59.2 nM. Besides, the “Selectivity Index” value in series [9] came out at 47.7. With `C[C@H]1[C@H](C)CC[C@]2(C(=O)OCCn3cnnc3-c3ccccc3)CC[C@]3(C)C(=CC[C@@H]4[C@@]5(C)CC[C@H](O)C(C)(C)[C@@H]5CC[C@]43C)[C@H]12`, the IC50 in the series on Toxoplasma gondii [2] worked out at 128 µg/mL. On to `CC(C)c1n[nH]c2c(=O)[nH]c(Cc3ccccc3)nc12`, for which the midpoint of inhibition with Toxoplasma gondii [11], the IC50, lay at 2000 nM. As to `CC(C)(C)C1=CC(=NNC(=O)c2ccc([N+](=O)[O-])cc2)C=C(C(C)(C)C)C1=O`, the IC50 in the series on Toxoplasma gondii [10] was 200 nM. As for `OCCCCCCC1COOC2(CCCCCCCCCCC2)OO1` (centres undefined), the LC50 in the series with Toxoplasma gondii [7] (Huh-7) stood at 1.11 µg/mL (≈ 3.1 µM). In addition, in the series with Huh-7, the IC50 worked out at 310 µg/mL (≈ 865 µM).

`O=C1C=C/C(=N\Oc2ccc([N+](=O)[O-])cc2[N+](=O)[O-])c2cccnc21` had an IC50 in the series on Toxoplasma gondii [2] of 1340 nM. On to `CC(C)(C)C1=CC(=NNC(=O)c2ccncc2)C=C(C(C)(C)C)C1=O`, for which half-maximal inhibition in the series with Toxoplasma gondii [10] (IC50) required 2300 nM.

Take `CCc1ccc(C(=O)NC(=O)c2ccccc2O)cc1`: the IC50 in the series on Toxoplasma gondii [2] was 16 to 32 nM. Further, the half-life in series [6] is < 10 min. In the series on Toxoplasma gondii [10], `CCOc1ccc(/C=C/c2nc(=O)c3ccccc3o2)cc1` yielded a concentration for half-maximal inhibition (IC50) of 270 nM. Take `O=C1C2=C(C(=O)c3ccccc31)[C@H]1Oc3ccc(Cl)cc3[C@H]1CO2`: the IC50 with Toxoplasma gondii [2] was < 1000 nM. As to `CC(C)(C)c1cc(C2C(C#N)=C(N)OC3=C2C(=O)CCC3)cc(C(C)(C)C)c1O` (centres undefined), the IC50 in the series on Toxoplasma gondii [10] was 1300 nM.

In the series on Toxoplasma gondii [2], `COc1ccc(OC)c(NCc2ccc3nc(N)nc(N)c3c2Cl)c1` gave an IC50 of 20 nM.

The molecule `CC(=O)O[C@H]1CC[C@]2(C)[C@H]3CC=C4[C@@H]5CC(C)(C)CC[C@]5(C(=O)O)CC[C@@]4(C)[C@]3(C)CC[C@H]2C1(C)C` [ACETYL OLEANOLIC ACID] had an IC50 in the series on Toxoplasma gondii [2] of 6800 nM. The same measure, in the same setting: then `CC(C)(C)[C@H]1CC[C@H](CC2=C(O)C(=O)c3ccccc3C2=O)CC1` [BUPARVAQUONE], with 100 nM. `C[C@H]1Cc2c([nH]c3cc(Cl)c(F)cc23)[C@@]2(N1)C(=O)Nc1ccc(Cl)cc12` [CIPARGAMIN]: half-maximal inhibition in the series on Toxoplasma gondii [7] (Huh-7) (IC50) required 1000 nM.

`O=c1[nH]c2cc(Cl)ccc2n1C1CCN(CCCC(c2ccc(F)cc2)c2ccc(F)cc2)CC1` [CLOPIMOZIDE] had a concentration for half-maximal inhibition (IC50) with Toxoplasma gondii [2] of 1800 nM. In the series with Toxoplasma gondii [2], `O=C(CC1NCCCC1O)Cn1cnc2cc(Br)c(Cl)cc2c1=O` (centres undefined) [HALOFUGINONE] had a concentration for a half-maximal effect (EC50) of 1.4 nM. As to `OCCOCCN1CCN(C(c2ccccc2)c2ccc(Cl)cc2)CC1` (centres undefined) [HYDROXYZINE], the IC50 in the series with Toxoplasma gondii [2] was found to be 1000 nM.

`C/C1=C\[C@H](C)C[C@H](C)OC(=O)C[C@H](c2ccc(O)cc2)NC(=O)[C@@H](Cc2c(Br)[nH]c3ccccc23)N(C)C(=O)[C@H](C)NC(=O)[C@@H](C)C1` [JASPAMIDE] gave an EC50 in the series with Toxoplasma gondii [11] of 30 to 300 nM.

`C=CC(C)(C)c1cc(/C=C/C(=O)c2ccc(O)cc2)c(OC)cc1O` [LICOAGROCHACONE A] registered an IC50 in the series with Toxoplasma gondii [2] of 0.848 µg/mL. Regarding `O=C(Nc1ccc([N+](=O)[O-])cc1Cl)c1cc(Cl)ccc1O` [NICLOSAMIDE], the EC50 in the series with Toxoplasma gondii [2] came out at 0.0453 µg/mL. `CC(=O)O[C@H]1CC[C@]2(C)[C@H]3CC=C4[C@@H]5[C@@H](C)[C@H](C)CC[C@]5(C(=O)O)CC[C@@]4(C)[C@]3(C)CC[C@H]2C1(C)C` [O-ACETYLURSOLIC ACID] displayed a half-maximal inhibitory concentration (IC50) in the series with Toxoplasma gondii [2] of 7900 nM.

`CC1(C)CC[C@]2(C(=O)O)CC[C@]3(C)C(=CC[C@@H]4[C@@]5(C)CC[C@H](O)C(C)(C)[C@@H]5CC[C@]43C)[C@@H]2C1` [OLEANOLIC_ACID] gave an IC50 in the series on Toxoplasma gondii [2] of 54800 nM. On the same count and under the same terms, with `CC/C(=C(\c1ccccc1)c1ccc(OCCN(C)C)cc1)c1ccccc1` [TAMOXIFEN] the figure was 1900 nM; with `Cc1coc2c1C(=O)C(=O)c1c-2ccc2c1CCCC2(C)C` [TANSHINONE IIA], 2500 nM; with `C[C@H]1[C@H](C)CC[C@]2(C(=O)O)CC[C@]3(C)C(=CC[C@@H]4[C@@]5(C)CC[C@H](O)C(C)(C)[C@@H]5CC[C@]43C)[C@H]12` [URSOLIC ACID], 5900 nM. For the molecule `CCCOc1ccccc1-c1nc2[nH]nnc2c(=O)[nH]1` [ZAPRINAST], in the series on Toxoplasma gondii [11], 60000 nM corresponded to half-maximal inhibition (IC50).
